According to patent US7923434B2, “Phosphole derivatives complexed with metals, and pharmaceutical uses thereof” (Centre National de la Recherche Scientifique, priority 2004, dated 2011):
Numbering of substitutions follows the chain as printed.

What was measured:
WT hTrxR [1] = biological target: T1, WT hTrxR (Homo sapiens, UniProt Q16881); assay: Test for reduction of DTNB by TrxR, wild type; format: biochemical; details: 3 mM DTNB; 10 min pre-incubation with 200 μM NADPH; enzyme 4.8 nM
T1 sequence (Q16881 151-649 limits assumed): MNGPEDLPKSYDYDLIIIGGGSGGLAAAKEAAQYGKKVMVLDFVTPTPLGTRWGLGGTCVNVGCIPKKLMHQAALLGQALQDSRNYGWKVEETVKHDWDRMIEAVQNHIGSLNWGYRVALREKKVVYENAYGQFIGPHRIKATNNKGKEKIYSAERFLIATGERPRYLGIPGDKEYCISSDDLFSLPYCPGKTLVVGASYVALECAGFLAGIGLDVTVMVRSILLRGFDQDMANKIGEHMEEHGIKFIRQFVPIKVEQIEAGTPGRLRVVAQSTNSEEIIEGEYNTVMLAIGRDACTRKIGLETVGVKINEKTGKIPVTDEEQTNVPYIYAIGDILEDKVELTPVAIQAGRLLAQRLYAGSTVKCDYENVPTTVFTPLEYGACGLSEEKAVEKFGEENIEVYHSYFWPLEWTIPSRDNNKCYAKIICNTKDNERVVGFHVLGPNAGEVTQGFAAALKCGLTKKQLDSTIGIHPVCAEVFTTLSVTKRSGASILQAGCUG
From the text: (§1) The phosphole derivatives containing gold and platinum have been identified as powerful inhibitors of human GR and TrxR (see Table 1). With either the substrate TrxC72S, or DTNB, very low IC50 values at nanomolar level—quasi-stoichiometric reaction—were obtained with wild-type human TrxR. By contrast, the IC50 values with the Sec→Cys mutant were at least 1000 times higher, proving that the selenocysteine residue is the inhibition target of human TrxR. […] A reduction of these enzymes is necessary to complete the inhibition, which proves that the active site comprising the Cys/Cys residues in the GR or Cys/Sec in the TrxR is the inactivation site. The pre-reduction of these enzymes accelerates the inhibition. The reaction between the inhibitor and these enzymes is very rapid and not precisely measurable with standard enzymology techniques. […] This competition would probably not contribute to the irreversible enzymatic inactivation.

WT hTrxR [2] = biological target: T1, WT hTrxR; assay: Test for reduction of Trx (hTrxC72S) by TrxR, wild type; format: biochemical; details: 20 μM hTrxC72S; 10 min pre-incubation with 100 μM NADPH; enzyme 24 nM
From the text: as §1

hTrxRSec→Cys [3] = biological target: T2, hTrxRSec→Cys (Homo sapiens, UniProt Q16881); assay: Test for reduction of DTNB by TrxR, mutant hTrxR-Mut; format: biochemical; details: 3 mM DTNB; 10 min pre-incubation with 200 μM NADPH; enzyme 90.6 nM
T2 sequence (Q16881 with tags, fused parts or gaps isoform Q16881-5 limits assumed): T1 sequence (Q16881 151-649 limits assumed) with U498C
From the text: as §1

hTrxRSec→Cys [4] = biological target: T2, hTrxRSec→Cys; assay: Test for reduction of Trx (hTrxC72S) by TrxR, mutant hTrxR-Mut; format: biochemical; details: 20 μM hTrxC72S; 10 min pre-incubation with 100 μM NADPH; enzyme 1.8 μM
From the text: as §1

human GR [5] = biological target: T3, human GR (Homo sapiens, UniProt P00390); assay: Test for reduction of GSSG by GR; format: biochemical; details: 100 μM GSSG; 10 min pre-incubation with 100 μM NADPH
T3 sequence (P00390 45-522 limits assumed): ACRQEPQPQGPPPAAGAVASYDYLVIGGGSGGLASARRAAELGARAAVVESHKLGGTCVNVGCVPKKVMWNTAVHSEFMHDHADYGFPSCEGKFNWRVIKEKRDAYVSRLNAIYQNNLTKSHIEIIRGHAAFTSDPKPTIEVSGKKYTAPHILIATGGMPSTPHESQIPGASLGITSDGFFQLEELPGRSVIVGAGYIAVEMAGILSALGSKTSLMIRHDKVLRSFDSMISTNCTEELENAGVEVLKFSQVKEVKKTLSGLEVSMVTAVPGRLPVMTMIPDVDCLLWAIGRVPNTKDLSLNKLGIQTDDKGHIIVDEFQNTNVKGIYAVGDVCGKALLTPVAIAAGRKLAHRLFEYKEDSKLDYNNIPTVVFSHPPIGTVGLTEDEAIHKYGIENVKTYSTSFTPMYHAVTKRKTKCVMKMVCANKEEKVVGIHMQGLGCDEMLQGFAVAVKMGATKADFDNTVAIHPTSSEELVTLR
From the text: as §1

[6] = test system: NCH37 human glioblastoma cell line; assay: BrdU in vitro proliferation test, NCH37; format: cell-based; details: BrdU incorporation
Experimental: (§2) Briefly, the tumour cells are cultured and duplicated in 96-well plates in RPMI 1640 medium containing 10% foetal calf serum and antibiotics (cell density: 7×10^3 cells). […] After 48 hours, the reagent 5-bromo-2′-deoxyuridine (BrdU) was added at the final concentration of 10 μM for an incubation period of 19 hours. […] Compound (7) (Au-triphenylphosphine chloride complex, (PPh3)AuCl) and nitrosourea 1,3-bis(2-chloroethyl)-1-nitrosourea (BCNU, carmustine) are positive controls already reported in the literature.

[7] = test system: NCH82 human glioblastoma cell line; assay: BrdU in vitro proliferation test, NCH82; format: cell-based; details: BrdU incorporation
Experimental: as §2

[8] = test system: NCH89 human glioblastoma cell line; assay: BrdU in vitro proliferation test, NCH89; format: cell-based; details: BrdU incorporation
Experimental: as §2

human GR [9] = biological target: T3, human GR; assay: Binding of (1) to human GR: titration and initial-speed kinetics
Experimental: The stoichiometry of binding of (1) to human GR was determined by titration. Based on these experiments, (1) binds very tightly to the binding site of the GSSG of each human GR sub-unit. […] Although numerous hydrophobic inhibitors of the human GR and of the GR of Plasmodium falciparum are bound in the cavity between the two sub-units of the dimer with a stoichiometry of 0.5 per sub-unit, this is not the case for the inhibitor (1). The stoichiometry of 1.25 equivalents of (1) per FAD or per sub-unit of human GR can be explained by the presence of a second molecule of (1) bound less tightly to another position in the human GR, confirming the 3D structure of the complex GR-(1). […] The inactivation mechanism of human GR therefore involves an S—Au(I)—S coordination and the loss of the phosphole ligand; • the second site for the metallo-phosphole (1) is the Cys284 exposed to the solvent, at 23 Å of the active site and located in a hydrophobic cavity. In this case, the sulphur atom of the Cys284 remains bound to the Au-phosphole entity. […]

[10] = Tolerability in C6 glioma-bearing rats; format: in vivo, rat
Experimental: After confirmation of the tumour growth by MRI on day 9, the rats carrying tumours were treated by intravenous injection with the compound (1) at a concentration of 25 mg/kg (n=4). The tumour growth was compared to that of the non-treated control animals (n=4). The treatment commenced on day 9 and continued on days 11 and 13. On day 15 after the implantation of the tumour cells, all the rats were sacrificed by decapitation. Under these conditions, a 44% reduction of the tumour growth was observed between days 9 and 15 at a dose of compound (1) of 25 mg/kg of body weight compared with that of the control group (FIG. 1).

DNA = assay: Thermal DNA denaturation test; format: binding; details: tested between 0 and 20 μM
Experimental: In addition to its major activity on human disulphide reductases, glutathione reductase and thioredoxin reductase, the binding of complex (1) to DNA was measured in thermal DNA denaturation tests.

Row | Structure (SMILES) | IC50 (WT hTrxR [1]) [nM] | IC50 (WT hTrxR [2]) [nM] | IC50 (hTrxRSec→Cys [3]) [nM] | IC50 (hTrxRSec→Cys [4]) [nM] | IC50 (human GR [5]) [nM] | IC50 [8] [µM] | further results
1 | O=NN(CCCl)C(=O)NCCCl [carmustine, 1,3-bis(2-chloroethyl)-1-nitrosourea] |  |  |  |  |  | 615 ± 38 | IC50 [6]: 300 ± 12 µM; IC50 [7]: 385 ± 25 µM
2 | [Cl][Au][PH]1(c2ccccc2)C(c2ccccn2)=C2CCCCC2=C1c1ccccn1 [Compound 1] | 0.8 | 7 | 2500 | 800 | 1 |  | Kd (human GR [9]; kinetics at initial speed with 0.5-2.0 μM GSSG, read-out: disassociation constant Kd=Ki): 460 nM; stoichiometry of binding (human GR [9]; titration, differences in extinction coefficient at selected wavelengths): 1.25 equivalents of (1) per FAD or per sub-unit of human GR; tolerability of the therapy ([10]; 25 mg/kg): well tolerated; death from treatment ([10]; 25 mg/kg i.v., C6 glioma rats): no animal died; total body weight, treated vs control ([10]; 25 mg/kg i.v., C6 glioma rats): no significant difference; binding to DNA: concentration from which active (DNA): 1 µM

Now from value to molecule, other results behind:

Row | IC50 (WT hTrxR [1]) [nM] | IC50 (WT hTrxR [2]) [nM] | IC50 (hTrxRSec→Cys [3]) [nM] | IC50 (hTrxRSec→Cys [4]) [nM] | IC50 (human GR [5]) [nM] | IC50 [8] [µM] | Structure (SMILES) | further results
3 | 1 | 7 | 2500 | 1400 | 2 |  | [Cl][Au][PH]1(c2ccccc2)C(c2ccccn2)=C2CCCCC2=C1c1cccs1 [Compound 2] | 
4 |  |  |  |  |  | 6.7 ± 0.3 | c1ccc(-p2c(-c3ccccn3)c3c(c2-c2ccccn2)CCCC3)cc1 [Compound 5] | 
5 | 1 | 8 | 24000 | 2300 | 400 |  | [Cl][Pt-2]1([Cl])[n+]2ccccc2C2=C3CCCCC3=C(c3cccs3)[P+]21c1ccccc1 (centres unmarked) [Compound 4] | 
6 |  |  |  |  |  | 8.5 ± 0.5 | c1ccc(-p2c(-c3ccccn3)c3c(c2-c2cccs2)CCCC3)cc1 (centres unmarked) [Compound 6] | 
